Experimental findings from patent US11555009B2, “2-(substituted benzene matrix) aromatic formate FTO inhibitor, preparation method therefor, and applications thereof” (SHANGHAI INSTITUTE OF MATERIA MEDICA, CHINESE ACADEMY OF …, priority 2017, dated 2023) are described below.

One experiment deals with FTO (Homo sapiens (Human), UniProt Q9C0B1). The experiment can be described thus: FTO enzyme inhibition (m6A dsDNA substrate, DpnII digestion, gel readout). As to conditions: for inhibition at 50 µM: read-out: Inhibition rate; for Inhibition rate: in vitro inhibition rate on FTO, compound at 50 μM. The experiment is classed as biochemical. How it is done:
High purity FTO protein was obtained by nickel column affinity chromatography purification.
After incubation at room temperature for 2 hrs, the reaction system was then slowly heated to 65° C. to inactivate, and 1 μM 39 nt of antisense strand DNA was added to anneal, thereby forming double strands. […] After Gel-Red dyeing, photos were taken with gel imaging system. The obtained band was subjected to gray scale reading to obtain inhibition rate.

Experiment [1] has as its system human small cell lung cancer cell lines (SCLC-21H). Nature of the experiment: MTS cytotoxicity on SCLC-21H cells. The experiment is classed as cell-based. As to conditions: 50 μM, 72 h; for inhibition at 50 µM: Homo sapiens, SCLC-21H, read-out: Inhibition rate (human small cell lung cancer SCLC-21H). How it is done:
(§1) The following was a study of the cytotoxicity study of compound of 2-(substituted phenylhetero)aromatic formic acid of formula (I) and its derivatives as FTO inhibitors on solid tumors including human small cell lung cancer cell lines (SCLC-21H), human bone marrow rhabdomyosarcoma cell line (RH30) and pancreatic cancer cell Line (KP3):
(§2) SCLC-21H, RH30 and KP3 solid tumor cell lines were cultivated separately, and seeded at 5000 cells per well in 96 well plates. The cells were cultured until the cells were adherent, and different compounds were added and the cultivation was continued for 72 hours. 10 uL of MTS solution was directly added and the mixture was incubated for 4 h, and the absorbance was measured at 490 nm. The inhibition rate was calculated by using the DMSO group as a control.

For experiment [2], the system named is human bone marrow rhabdomyosarcoma cell line (RH30). The experiment can be described thus: MTS cytotoxicity on RH30 cells. The format is cell-based. As to conditions: 50 μM, 72 h; for inhibition at 50 µM: Homo sapiens, Rh30, read-out: Inhibition rate (human bone marrow rhabdomyosarcoma cell RH30). On the procedure:
as §1, §2

Broadly, the IC50 is the concentration that inhibits the measured activity by half. Low values mean greater potency in that assay, high ones weaker potency in that assay. A word on the inhibition: it is the percentage by which the read-out fell short of the control.

FTO, sequence (Q9C0B1 whole entry): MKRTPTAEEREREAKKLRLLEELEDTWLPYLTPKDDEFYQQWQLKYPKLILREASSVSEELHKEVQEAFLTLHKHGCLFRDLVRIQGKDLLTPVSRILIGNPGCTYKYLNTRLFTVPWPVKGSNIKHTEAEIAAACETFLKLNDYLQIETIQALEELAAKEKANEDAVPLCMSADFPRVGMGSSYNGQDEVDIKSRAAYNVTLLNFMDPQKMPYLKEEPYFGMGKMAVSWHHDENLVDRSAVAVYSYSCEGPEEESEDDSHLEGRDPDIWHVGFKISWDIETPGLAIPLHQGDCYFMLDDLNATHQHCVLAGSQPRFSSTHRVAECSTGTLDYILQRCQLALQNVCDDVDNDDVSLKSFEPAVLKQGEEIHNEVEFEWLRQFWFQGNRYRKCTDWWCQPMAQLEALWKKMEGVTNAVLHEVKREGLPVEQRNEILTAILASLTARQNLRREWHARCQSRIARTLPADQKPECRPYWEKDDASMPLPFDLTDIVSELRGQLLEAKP

With `O=C(O)c1ccccc1Nc1c(Cl)cc(-c2cc(O)cc(O)c2)cc1Cl` [Compound 1], on FTO, 700 nM corresponded to half-maximal inhibition (IC50) and the inhibition at 50 µM came to 85%.
The matching figures for `O=C(O)c1ccccc1Nc1c(Cl)cc(-c2ccn[nH]2)cc1Cl` [Compound 2]: under 5000 nM and 80%.
In the case of `O=C(O)c1ccccc1Nc1c(Cl)cc(-c2ccncc2)cc1Cl` [Compound 5], the IC50 against FTO was under 5000 nM. Moreover, the inhibition at 50 µM in experiment [1] turned out to be 55%; in experiment [2], 29%.
In turn, `O=C(O)c1ccc(-c2cc(Cl)c(Nc3ccccc3C(=O)O)c(Cl)c2)s1` [Compound 10] yielded a half-maximal inhibitory concentration (IC50) on FTO of under 1000 nM.
As for `Cc1noc(C)c1-c1cc(Cl)c(Nc2ccccc2C(=O)O)c(Cl)c1` [Compound 15, 2-((2,6-dichloro-4-(3,5-dimethylisoxazole)phenyl)amino)benzoic acid], the values for the inhibition at 50 µM in experiment [1] and in experiment [2] were 43% and 49%, respectively.
The matching figures for `Cc1n[nH]c(C)c1-c1cc(Cl)c(Nc2ccccc2C(=O)O)c(Cl)c1` [Compound 17]: 25% and 39%.
Consider `Cc1noc(C)c1-c1cc(Cl)c(Nc2ccccc2-c2nn[nH]n2)c(Cl)c1` [Compound 26], for which the “Inhibition rate (human small cell lung cancer SCLC-21H)” value in experiment [1] stood at 17%. For the same compound, in experiment [2], the “Inhibition rate (human bone marrow rhabdomyosarcoma cell RH30)” value was found to be 36%.
For the compound `Cc1noc(C)c1-c1cc(Cl)c(Nc2ccccc2-c2noc(=O)[nH]2)c(Cl)c1` [Compound 27], the IC50 at FTO is under 1000 nM. In addition, the “Inhibition rate (human small cell lung cancer SCLC-21H)” value in experiment [1] is reported as 14%. In experiment [2], the “Inhibition rate (human bone marrow rhabdomyosarcoma cell RH30)” value came to 50%.
In the case of `Cc1noc(C)c1-c1cc(Cl)c(Nc2ccccc2C(=O)O)c(Cl)c1` [Compound 28], in experiment [1], the “Inhibition rate (human small cell lung cancer SCLC-21H)” value worked out at 32%. Further, the “Inhibition rate (human bone marrow rhabdomyosarcoma cell RH30)” value in experiment [2] turned out to be 21%.
The matching figures for `Cc1noc(C)c1-c1cc(Cl)c(Nc2ccccc2C(=O)O)c(Cl)c1` [Compound 29]: 46% and 47%.
The matching figures for `Cc1noc(C)c1-c1cc(Cl)c(Nc2ccccc2C(=O)O)c(Cl)c1` [Compound 30]: 33% and 32%.
In the case of `O=C(O)c1ccccc1Nc1c(F)cc(-c2cn[nH]c2)cc1F` [Compound 36], on FTO, the Inhibition rate came out at 28%.
`O=C(O)c1ccccc1Nc1c(F)cc(-c2ccncc2)cc1F` [Compound 37] had an Inhibition rate on FTO of 31%. In addition, the “Inhibition rate (human small cell lung cancer SCLC-21H)” value in experiment [1] is recorded as 60%. In experiment [2], the “Inhibition rate (human bone marrow rhabdomyosarcoma cell RH30)” value was 21%.
On FTO, `Cc1noc(C)c1-c1cc(O)c(Nc2ccccc2C(=O)O)c(O)c1` [Compound 40] showed an Inhibition rate of 100%.
For `COc1cc(-c2cn[nH]c2)cc(OC)c1Nc1ccccc1C(=O)O` [Compound 41], the “Inhibition rate (human small cell lung cancer SCLC-21H)” value in experiment [1] amounted to 35%. Further, the “Inhibition rate (human bone marrow rhabdomyosarcoma cell RH30)” value in experiment [2] is reported as 28%.
The compound `COc1cc(-c2cc[nH]n2)cc(OC)c1Nc1ccccc1C(=O)O` [Compound 42] showed an Inhibition rate at FTO of 79%. Moreover, in experiment [1], the “Inhibition rate (human small cell lung cancer SCLC-21H)” value worked out at 33%. Also, in experiment [2], the “Inhibition rate (human bone marrow rhabdomyosarcoma cell RH30)” value came out at 33%.
Turning to `COc1cc(-c2c(C)noc2C)cc(OC)c1Nc1ccccc1C(=O)O` [Compound 43], in experiment [1], the “Inhibition rate (human small cell lung cancer SCLC-21H)” value was 44%. Further, in experiment [2], the “Inhibition rate (human bone marrow rhabdomyosarcoma cell RH30)” value came to 25%.
On to `Cc1cc(-c2c(C)noc2C)cc(C)c1Nc1ccccc1C(=O)O` [Compound 44], for which, at FTO, the Inhibition rate is 100%. The “Inhibition rate (human small cell lung cancer SCLC-21H)” value in experiment [1] is 47%. In experiment [2], the “Inhibition rate (human bone marrow rhabdomyosarcoma cell RH30)” value was 24%.
The matching figures for `Cc1cc(-c2ccncc2)cc(C)c1Nc1ccccc1C(=O)O` [Compound 46]: 100%, 66% and 41%.
Regarding `Cc1cc(-c2c(C)noc2C)c(C)cc1Nc1ccccc1C(=O)O` [Compound 48], the “Inhibition rate (human small cell lung cancer SCLC-21H)” value in experiment [1] was 63%. Besides, the “Inhibition rate (human bone marrow rhabdomyosarcoma cell RH30)” value in experiment [2] came out at 51%.
The compound `O=C(O)c1ccccc1Nc1cc(F)c(-c2ccncc2)c(F)c1` [Compound 49] yielded an Inhibition rate at FTO of 100%. In experiment [1], the “Inhibition rate (human small cell lung cancer SCLC-21H)” value was determined as 20%. Moreover, in experiment [2], the “Inhibition rate (human bone marrow rhabdomyosarcoma cell RH30)” value came to 51%.
Compound `O=C(O)c1ccccc1Nc1ccc(-c2ccncc2)cc1O` [Compound 52] had an Inhibition rate at FTO of 90%.
At FTO, `O=C(O)c1ccccc1Nc1c(Cl)cc(N2CCOCC2)cc1Cl` [Compound 55] gave an IC50 of under 5000 nM and an Inhibition rate of 100%.
As to `O=C(O)c1ccccc1Nc1c(Cl)cc(C2CCNCC2)cc1Cl` [Compound 56], the Inhibition rate at FTO worked out at 45%.
In turn, `Cc1n[nH]cc1-c1cc(Cl)c(Nc2ncccc2C(=O)O)c(Cl)c1` [Compound 57] yielded an Inhibition rate at FTO of 100%. Also, the “Inhibition rate (human small cell lung cancer SCLC-21H)” value in experiment [1] was 47%. The “Inhibition rate (human bone marrow rhabdomyosarcoma cell RH30)” value in experiment [2] was 40%.
The matching figures for `O=C(O)c1cccnc1Nc1c(Cl)cc(-c2ccoc2)cc1Cl` [Compound 59]: 100%, 28% and 57%.
Turning to `O=C(O)c1cccnc1Nc1c(Cl)cc(-c2ccccc2)cc1Cl` [Compound 60], in experiment [1], the “Inhibition rate (human small cell lung cancer SCLC-21H)” value was 71%. Moreover, the “Inhibition rate (human bone marrow rhabdomyosarcoma cell RH30)” value in experiment [2] came to 72%.
The matching figures for `COc1cc(OC)cc(-c2cc(Cl)c(Nc3ncccc3C(=O)O)c(Cl)c2)c1` [Compound 61]: 44% and 52%.
`O=C(NO)c1cccnc1Nc1c(Cl)cc(-c2ccncc2)cc1Cl` [Compound 62] displayed an Inhibition rate on FTO of 28%. For the same compound, the “Inhibition rate (human small cell lung cancer SCLC-21H)” value in experiment [1] was determined as 84%. For the same compound, the “Inhibition rate (human bone marrow rhabdomyosarcoma cell RH30)” value in experiment [2] was found to be 87%.
The matching figures for `Cc1noc(C)c1-c1cc(Cl)c(Nc2ncccc2C(=O)NO)c(Cl)c1` [Compound 63]: 35%, 70% and 68%.
The matching figures for `O=C(NO)c1nccnc1Nc1c(Cl)cc(-c2cn[nH]c2)cc1Cl` [Compound 64]: 68%, 24% and 30%.
`Cc1noc(C)c1-c1cc(Cl)c(Nc2nccnc2C(=O)O)c(Cl)c1` [Compound 65] displayed an Inhibition rate on FTO of 88%. For the same compound, in experiment [1], the “Inhibition rate (human small cell lung cancer SCLC-21H)” value was 52%. Further, the “Inhibition rate (human bone marrow rhabdomyosarcoma cell RH30)” value in experiment [2] came to 42%.
In the case of `O=C(O)c1nccnc1Nc1c(Cl)cc(-c2ccncc2)cc1Cl` [Compound 66], the “Inhibition rate (human small cell lung cancer SCLC-21H)” value in experiment [1] was determined as 48%. Also, the “Inhibition rate (human bone marrow rhabdomyosarcoma cell RH30)” value in experiment [2] was 53%.
For `Cc1n[nH]cc1-c1cc(Cl)c(Nc2nccnc2C(=O)O)c(Cl)c1` [Compound 67], the “Inhibition rate (human small cell lung cancer SCLC-21H)” value in experiment [1] is on record as 33%. Further, in experiment [2], the “Inhibition rate (human bone marrow rhabdomyosarcoma cell RH30)” value turned out to be 41%.
On to `O=C(O)c1nccnc1Nc1c(Cl)cc(-c2ccoc2)cc1Cl` [Compound 68], for which, in experiment [1], the “Inhibition rate (human small cell lung cancer SCLC-21H)” value is given as 68%. In addition, the “Inhibition rate (human bone marrow rhabdomyosarcoma cell RH30)” value in experiment [2] is on record as 56%.
On to `Cc1noc(C)c1-c1cc(Cl)c(Nc2ccc(F)cc2C(=O)O)c(Cl)c1` [Compound 69], for which the “Inhibition rate (human small cell lung cancer SCLC-21H)” value in experiment [1] came out at 50%. The “Inhibition rate (human bone marrow rhabdomyosarcoma cell RH30)” value in experiment [2] is reported as 29%.
Consider `O=C(O)c1cc(F)ccc1Nc1c(Cl)cc(-c2ccncc2)cc1Cl` [Compound 70], for which the Inhibition rate at FTO turned out to be 81%. For the same compound, the “Inhibition rate (human small cell lung cancer SCLC-21H)” value in experiment [1] stood at 46%. Further, the “Inhibition rate (human bone marrow rhabdomyosarcoma cell RH30)” value in experiment [2] is listed as 42%.
As for `O=C(O)c1cc(F)ccc1Nc1c(Cl)cc(-c2cncnc2)cc1Cl` [Compound 71], on FTO, the Inhibition rate came out at 70%.
On to `O=C(O)c1cc(F)ccc1Nc1c(Cl)cc(-c2ccc(F)cc2)cc1Cl` [Compound 72], for which, in experiment [1], the “Inhibition rate (human small cell lung cancer SCLC-21H)” value worked out at 64%. Besides, the “Inhibition rate (human bone marrow rhabdomyosarcoma cell RH30)” value in experiment [2] came out at 37%.
Take `O=C(O)c1cc(F)ccc1Nc1c(Cl)cc(-c2cn[nH]c2)cc1Cl` [Compound 73]: the Inhibition rate on FTO is 84%.
As to `C#CCOC(=O)c1ccccc1Nc1c(Cl)cc(-c2c(C)noc2C)cc1Cl` [Compound 84], the inhibition at 50 µM at FTO came out at 34%.
Still for that read-out and setting: as for `CCCOCCOC(=O)c1ccccc1Nc1c(Cl)cc(-c2c(C)noc2C)cc1Cl` [Compound 85], the figure is 30%.
On the same count and under the same terms, as for `CCN(CC)CCOC(=O)c1ccccc1Nc1c(Cl)cc(-c2c(C)noc2C)cc1Cl` [Compound 86], the figure is 31%; as for `Cc1noc(C)c1-c1cc(Cl)c(Nc2ccccc2C(=O)OCc2oc(=O)oc2C)c(Cl)c1` [Compound 88], 34%.
